Experiments:
[1] = Example 2: safety (adverse events, blood pressure, clinical laboratory values); type: in vivo, human; details: for Diastolic BP Change from Baseline Post-treatment / Diastolic BP Change from Baseline Treatment / Systolic BP Change from Baseline Post-treatment / Systolic BP Change from Baseline Treatment: mean ± SD
Protocol: Each patient received 1 of 6 doses of DTI-0009 (0.25, 1.0, 2.5, 4.0, 10.0, or 25.0 μg/kg) diluted in normal saline or normal saline only (control). Study drug was administered as a 30-minute i.v. infusion at a rate of 1 mL/minute. Patients were enrolled in sequential dose groups, beginning with the lowest active dose group and continuing in increasing dose order; the final group received normal saline. The decision to proceed to the next highest dose group was based on the safety response in the previous dose group.
Electrophysiologic (EP), electrocardiogram (ECG), blood pressure measurements, and blood collection for clinical laboratory measurements were performed at baseline (−10 to 0 minutes), during treatment (between 20 and 30 minutes), and at 10 minutes post-treatment.
ECG measurements included PR interval, QRS complex duration, and QT interval. Efficacy was based on changes in EP and ECG parameters from baseline to the treatment period and to post treatment. Safety was based on the incidence of adverse events, blood pressure measurements, and clinical laboratory values.
The incidence of adverse events, blood pressure measurements, and clinical laboratory results were summarized by dose group. Adverse events were coded using the medical dictionary for regulatory activities (MedDRA version 3.0). Safety analyses included all patients who received any duration of study drug infusion.

[2] = system: atrioventricular (AV) node; test: Example 3: Phase I dose escalation, effects on AV node function; type: in vivo, human
Protocol: This study for determining the effects of DTI-0009 on atrioventricular (AV) node function enrolled 63 patients (19 women and 44 men; mean age 54) who were scheduled for a procedure other than AV node or slow pathway ablation. All patients had no greater than a first degree AV block and AV node Wenckebach Cycle Length of less than 500 msec. […] The study was a Phase I, multi-center, open-label, sequential dose escalation using DTI-0009 (0.25 μg/kg, 1.0 μg/kg, 2.5 μg/kg, 4.0 μg/kg, 10.0 μg/kg, and 25.0 μg/kg) or normal saline. Electrophysiologic studies (EPS) were performed at baseline, during infusion (20-30 min) and 10 minutes after discontinuation of DTI-0009 administration.

## CCNC(=O)[C@H]1O[C@@H](n2cnc3c(NC4CCCC4)ncnc32)[C@H](O)[C@@H]1O [DTI-0009, N^6-cyclopentyl-5′-(N-ethyl)carboxamidoadenosine]
[1]; 0.25 μg/kg (n = 10)
  Adverse Events Related to Study Drug: Cardiac Disorders (all): 0
  Adverse Events Related to Study Drug: General Disorders (all): 0
  Incidence of Adverse Events Related to Study Drug: 0
  Incidence of Adverse Events: Any Adverse Event: 3 (30%)
  Incidence of Adverse Events: Atrial fibrillation: 1 (10%)
  Incidence of Adverse Events: Atrial flutter: 1 (10%)
  Incidence of Adverse Events: Atrial tachycardia: 0
  Incidence of Adverse Events: Bradycardia: 0
  Incidence of Adverse Events: Cardiac Disorders: 2 (20%)
  Incidence of Adverse Events: Chest pain/tightness: 0
  Incidence of Adverse Events: Conduction disorders: 0
  Incidence of Adverse Events: General Disorders: 0
  Incidence of Adverse Events: Groin pain/swelling: 0
[1]; 0.25 μg/kg
  Diastolic BP Change from Baseline Post-treatment: 5.2 ± 9.7 mmHg
  Diastolic BP Change from Baseline Treatment: 2.5 ± 8.1 mmHg
  Systolic BP Change from Baseline Post-treatment: 5.8 ± 9.5 mmHg
  Systolic BP Change from Baseline Treatment: 8.8 ± 8.2 mmHg
[1]; 1.0 μg/kg (n = 10)
  Adverse Events Related to Study Drug: Cardiac Disorders (all): 1 (10%)
  Adverse Events Related to Study Drug: General Disorders (all): 0
  Incidence of Adverse Events Related to Study Drug: 1 (10%)
  Incidence of Adverse Events: Any Adverse Event: 6 (60%)
  Incidence of Adverse Events: Atrial fibrillation: 0
  Incidence of Adverse Events: Atrial flutter: 1 (10%)
  Incidence of Adverse Events: Atrial tachycardia: 0
  Incidence of Adverse Events: Bradycardia: 0
  Incidence of Adverse Events: Cardiac Disorders: 1 (10%)
  Incidence of Adverse Events: Chest pain/tightness: 0
  Incidence of Adverse Events: Conduction disorders: 0
  Incidence of Adverse Events: General Disorders: 1 (10%)
  Incidence of Adverse Events: Groin pain/swelling: 1 (10%)
[1]; 1.0 μg/kg
  Diastolic BP Change from Baseline Post-treatment: 1.0 ± 5.6 mmHg
  Diastolic BP Change from Baseline Treatment: 3.3 ± 9.3 mmHg
  Systolic BP Change from Baseline Post-treatment: 1.4 ± 21.5 mmHg
  Systolic BP Change from Baseline Treatment: −0.1 ± 18.0 mmHg
[1]; 2.5 μg/kg (n = 8)
  Adverse Events Related to Study Drug: Cardiac Disorders (all): 0
  Adverse Events Related to Study Drug: General Disorders (all): 0
  Incidence of Adverse Events Related to Study Drug: 0
  Incidence of Adverse Events: Any Adverse Event: 3 (38%)
  Incidence of Adverse Events: Atrial fibrillation: 1 (13%)
  Incidence of Adverse Events: Atrial flutter: 0
  Incidence of Adverse Events: Atrial tachycardia: 0
  Incidence of Adverse Events: Bradycardia: 0
  Incidence of Adverse Events: Cardiac Disorders: 1 (13%)
  Incidence of Adverse Events: Chest pain/tightness: 1 (13%)
  Incidence of Adverse Events: Conduction disorders: 0
  Incidence of Adverse Events: General Disorders: 2 (25%)
  Incidence of Adverse Events: Groin pain/swelling: 0
[1]; 2.5 μg/kg
  Diastolic BP Change from Baseline Post-treatment: −1.6 ± 9.5 mmHg
  Diastolic BP Change from Baseline Treatment: 0.0 ± 8.4 mmHg
  Systolic BP Change from Baseline Post-treatment: 0.6 ± 9.0 mmHg
  Systolic BP Change from Baseline Treatment: 1.0 ± 6.2 mmHg
[1]; 4.0 μg/kg (n = 10)
  Adverse Events Related to Study Drug: Cardiac Disorders (all): 2 (20%)
  Adverse Events Related to Study Drug: General Disorders (all): 0
  Incidence of Adverse Events Related to Study Drug: 2 (20%)
  Incidence of Adverse Events: Any Adverse Event: 2 (20%)
  Incidence of Adverse Events: Atrial fibrillation: 2 (20%)
  Incidence of Adverse Events: Atrial flutter: 0
  Incidence of Adverse Events: Atrial tachycardia: 0
  Incidence of Adverse Events: Bradycardia: 0
  Incidence of Adverse Events: Cardiac Disorders: 2 (20%)
  Incidence of Adverse Events: Chest pain/tightness: 0
  Incidence of Adverse Events: Conduction disorders: 0
  Incidence of Adverse Events: General Disorders: 0
  Incidence of Adverse Events: Groin pain/swelling: 0
[1]; 4.0 μg/kg
  Diastolic BP Change from Baseline Post-treatment: 0.6 ± 10.5 mmHg
  Diastolic BP Change from Baseline Treatment: 3.3 ± 8.4 mmHg
  Systolic BP Change from Baseline Post-treatment: 5.2 ± 10.2 mmHg
  Systolic BP Change from Baseline Treatment: 3.8 ± 8.4 mmHg
[1]; 10.0 μg/kg (n = 12)
  Adverse Events Related to Study Drug: Cardiac Disorders (all): 6 (50%)
  Adverse Events Related to Study Drug: General Disorders (all): 1 (8%)
  Incidence of Adverse Events Related to Study Drug: 7 (58%)
  Incidence of Adverse Events: Any Adverse Event: 8 (67%)
  Incidence of Adverse Events: Atrial fibrillation: 3 (25%)
  Incidence of Adverse Events: Atrial flutter: 1 (8%)
  Incidence of Adverse Events: Atrial tachycardia: 0
  Incidence of Adverse Events: Bradycardia: 1 (8%)
  Incidence of Adverse Events: Cardiac Disorders: 6 (50%)
  Incidence of Adverse Events: Chest pain/tightness: 1 (8%)
  Incidence of Adverse Events: Conduction disorders: 1 (8%)
  Incidence of Adverse Events: General Disorders: 2 (17%)
  Incidence of Adverse Events: Groin pain/swelling: 0
[1]; 10.0 μg/kg group
  patients with severe adverse events: 1 patient
[1]; 10.0 μg/kg
  Diastolic BP Change from Baseline Post-treatment: −7.2 ± 16.8 mmHg
  Diastolic BP Change from Baseline Treatment: −3.2 ± 11.2 mmHg
  Systolic BP Change from Baseline Post-treatment: −12.6 ± 20.4 mmHg
  Systolic BP Change from Baseline Treatment: −3.2 ± 13.5 mmHg
[1]; 25.0 μg/kg (n = 3)
  Adverse Events Related to Study Drug: Cardiac Disorders (all): 2 (66.7%)
  Adverse Events Related to Study Drug: General Disorders (all): 3 (100%)
  Incidence of Adverse Events Related to Study Drug: 3 (100%)
  Incidence of Adverse Events: Any Adverse Event: 3 (100%)
  Incidence of Adverse Events: Atrial fibrillation: 1 (33%)
  Incidence of Adverse Events: Atrial flutter: 0
  Incidence of Adverse Events: Atrial tachycardia: 1 (33%)
  Incidence of Adverse Events: Bradycardia: 1 (33%)
  Incidence of Adverse Events: Cardiac Disorders: 2 (66.7%)
  Incidence of Adverse Events: Chest pain/tightness: 3 (100%)
  Incidence of Adverse Events: Conduction disorders: 0
  Incidence of Adverse Events: General Disorders: 3 (100%)
  Incidence of Adverse Events: Groin pain/swelling: 0
[1]; 25.0 μg/kg group
  patients with severe adverse events: 2 patients
[1]; 25.0 μg/kg group, chest pain, severe chest pain, chest tightness and atrial fibrillation
  patients who did not complete study drug infusion due to adverse events: Three patients
[1]; 25.0 μg/kg
  Diastolic BP Change from Baseline Post-treatment: 1.0 ± 8.0 mmHg
  Diastolic BP Change from Baseline Treatment: 7.5 ± 2.1 mmHg
  Systolic BP Change from Baseline Post-treatment: 6.7 ± 8.1 mmHg
  Systolic BP Change from Baseline Treatment: 23.0 ± 2.8 mmHg
[1]; any patient during the study
  changes in blood pressure or clinical laboratory values: no clinically significant changes
[2]; 4.0 μg/kg (n = 9), ns
  AERP Change from Baseline: +10 msec (ns)
  AH Interval Change from Baseline: +9 msec (ns)
  AVNERP Change from Baseline: +73 msec (ns)
  Wenkebach Cycle Length Change from Baseline: +60 msec (ns)
[2]; 4.0 μg/kg (n = 9), p = 0.008
  HR at 250 msec pacing Change from Baseline: −49 bpm
[2]; 10.0 μg/kg (n = 8), p = 0.001
  AVNERP Change from Baseline: +248 msec
  HR at 250 msec pacing Change from Baseline: −51 bpm
  Wenkebach Cycle Length Change from Baseline: +198 msec
[2]; 10.0 μg/kg (n = 8), p = 0.004
  AH Interval Change from Baseline: +24 msec
[2]; 10.0 μg/kg (n = 8), p = 0.035
  AERP Change from Baseline: -14 ms
[2]; 10.0 μg/kg dose
  complete heart block: occurred in one patient
[2]; 25.0 μg/kg (n = 2), ns
  AERP Change from Baseline: +10 msec (ns)
  AH Interval Change from Baseline: +14 msec (ns)
[2]; 25.0 μg/kg (n = 2), p = 0.004
  HR at 250 msec pacing Change from Baseline: −45 bpm
[2]; 25.0 μg/kg (n = 2), p = 0.013
  AVNERP Change from Baseline: +185 msec
[2]; 25.0 μg/kg (n = 2), p = 0.035
  Wenkebach Cycle Length Change from Baseline: +140 msec
[2]; 25.0 μg/kg, three patients dosed
  transient, severe, non-ischemic chest pain reported as serious adverse events: two of these patients
[2]; doses up to 2.5 μg/kg
  effects on AV node variables at low doses: negligible effects
[2]; up to a dose of 10.0 μg/kg
  tolerability: well tolerated

Reference: patent US20050009776A1, “Method of treating atrial fibrillation or atrial flutter” (Aderis Pharmaceuticals, Inc., priority 2003, published 2005)
